Assay results: publication PMC5957473, “Small Molecule Neuropilin-1 Antagonists Combine Antiangiogenic and Antitumor Activity with Immune Modulation through Reduction of Transforming Growth Factor Beta (TGFβ) Production in Regulatory T-Cells” (Journal of Medicinal Chemistry, 2018)

How the values were obtained:
NRP1-b1 = target: T1, NRP1-b1 (Homo sapiens, UniProt O14786); experiment: SPR equilibrium binding assay (Biacore 4000), immobilised NRP1-b1; conditions: equilibrium (steady-state) binding, 25 °C, average ± SD of high and low density surfaces
T1 construct: His6 (TEV protease-cleavable) (N); made in house; host or cells: Escherichia coli Rosetta Gami 2 (DE3) pLysS
T1 sequence (O14786 273-427): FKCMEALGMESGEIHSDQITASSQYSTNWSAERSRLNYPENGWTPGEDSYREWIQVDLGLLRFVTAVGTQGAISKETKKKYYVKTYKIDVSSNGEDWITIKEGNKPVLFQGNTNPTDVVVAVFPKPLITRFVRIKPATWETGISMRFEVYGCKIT
Method: All the compounds were evaluated using an SPR binding assay (Biacore) where recombinant NRP1-b1b2 protein was immobilized on a dextran coated chip.[23] Selected compounds were then evaluated in competitive binding assay systems using biotinylated VEGF. […] This encouraging result prompted us to conduct a more focused structure–activity study around the 10a structure.
Surface plasmon resonance experiments were performed using a Biacore 4000 instrument at 25 °C. Sensor chips, buffer stock solutions, and immobilization reagents were from GE Healthcare. Recombinant human NRP1-b1 was as above. Other reagents were obtained from Sigma. Immobilization: PBS (containing 0.05% surfactant P20) was used as the running buffer. The four flow cells were treated in the same way to optimize throughput. In summary, using a CM5 chip spots 1 and 2 were activated with the coupling reagents EDC and NHS for 10 min. NRP1-b1 at a concentration of 20 μg/mL in 10 mM sodium acetate pH 5 was injected onto the surface for 10 and 5 min in spots 1 and 2, respectively, to generate surfaces with high and low density. The immobilization levels ranged from 2302 to 1823 RU on spot 1 and from 948 to 1112 RU in spot 2. The unmodified spot 3 was used as a reference. […] Dose–responses were obtained using a 2-fold sample dilution from 16 μM to 31 nM, using an injection time of 60 s. Surface regeneration between injections was not necessary, but a wash step with 1 M NaCl was included after injection of the highest concentration sample for each compound. Data processing: Binding curves were corrected for variations in DMSO concentration and normalized by molecular weight. Binding results to high and low-density surfaces were processed independently and the average ± SD is presented. KDs reported are derived from steady-state binding responses and therefore correspond to the equilibrium binding affinity of the compounds.

HUVEC cells [1] = experiment: Wound healing scratch assay; type: cell-based, human; conditions: 30 μM + VEGF-A 25 ng/mL, 1% EGM
Nrp1+ Tregs = experiment: TGFβ production by Nrp1+ Tregs exposed to glioma conditioned media (ELISA); type: cell-based, mice; conditions: 500 nM pretreatment 2 h, GCM 12 h
NRP2 = target: T2, NRP2 (Homo sapiens, UniProt O60462); experiment: SPR single-cycle binding to NRP2 (Biacore T200); conditions: 62.5 – 1000 nM, NRP2 His tagged and NRP2-Fc chimera
T2 sequence (O60462 23-802 limits assumed): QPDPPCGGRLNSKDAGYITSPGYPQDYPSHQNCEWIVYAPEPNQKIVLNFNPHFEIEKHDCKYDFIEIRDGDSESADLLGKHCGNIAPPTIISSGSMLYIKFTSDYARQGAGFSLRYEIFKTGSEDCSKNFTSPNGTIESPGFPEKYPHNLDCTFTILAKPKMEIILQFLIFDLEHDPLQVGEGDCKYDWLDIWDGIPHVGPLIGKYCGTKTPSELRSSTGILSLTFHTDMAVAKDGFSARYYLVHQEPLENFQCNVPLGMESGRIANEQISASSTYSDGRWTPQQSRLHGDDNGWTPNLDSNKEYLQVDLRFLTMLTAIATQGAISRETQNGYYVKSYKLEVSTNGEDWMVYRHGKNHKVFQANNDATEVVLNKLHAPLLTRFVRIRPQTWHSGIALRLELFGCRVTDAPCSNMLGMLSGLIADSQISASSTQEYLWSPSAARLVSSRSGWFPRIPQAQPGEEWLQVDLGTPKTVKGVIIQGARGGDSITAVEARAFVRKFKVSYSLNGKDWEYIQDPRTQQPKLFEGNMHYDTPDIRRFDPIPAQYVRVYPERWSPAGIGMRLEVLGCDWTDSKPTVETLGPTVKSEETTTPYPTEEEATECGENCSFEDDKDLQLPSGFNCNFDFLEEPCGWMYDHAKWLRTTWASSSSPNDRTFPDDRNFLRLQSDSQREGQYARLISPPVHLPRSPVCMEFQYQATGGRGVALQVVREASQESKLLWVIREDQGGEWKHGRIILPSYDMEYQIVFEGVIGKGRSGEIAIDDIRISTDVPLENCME

[2] = IV pharmacokinetics in mice; type: in vivo; conditions: for half-life: 2 mg/kg
Method: To test compound drug-like properties, selected compounds with low IC50 were further tested for pharmacokinetics (PK) profile. First, 6–8 week-old BABL/c female mice were used, then 2 mg/kg of compounds was formulated in 7.5% DMSO and 92.5% solution and intravenously dosed from the tail vein as a bolus. Blood samples were collected by cardiac puncture at 5, 15, 30, 60, 180, and 240 min post dosing. Plasma samples were prepared by centrifugation at 7000 rpm for 5 min, and supernatants were collected, immediately snap-frozen on dry ice, and stored at −20C. Samples were analyzed by liquid chromatography–tandem mass spectrometry using electrospray ionization and data was analyzed by WinNonlin software.

[3] = system: A375P (malignant melanoma) cells; experiment: 3D spheroid invasion assay; type: cell-based
HUVEC cells [4] = experiment: Transwell migration (chemotaxis) of HUVEC cells toward VEGF-A; type: cell-based, human; conditions: 30 μM, no VEGF-A
DU145/cells.Ad.NRP1 = target: T3, DU145/cells.Ad.NRP1 (Homo sapiens, UniProt O14786); experiment: Cell-based competition binding with bt-VEGF in DU145 cells infected with adenovirus expressing WT NRP1; conditions: HS value in brackets beside IC50
T3 construct: expressed in transfected cells; host or cells: DU145 prostate cancer cells (ATCC) infected with adenovirus
T3 sequence (O14786 22-923): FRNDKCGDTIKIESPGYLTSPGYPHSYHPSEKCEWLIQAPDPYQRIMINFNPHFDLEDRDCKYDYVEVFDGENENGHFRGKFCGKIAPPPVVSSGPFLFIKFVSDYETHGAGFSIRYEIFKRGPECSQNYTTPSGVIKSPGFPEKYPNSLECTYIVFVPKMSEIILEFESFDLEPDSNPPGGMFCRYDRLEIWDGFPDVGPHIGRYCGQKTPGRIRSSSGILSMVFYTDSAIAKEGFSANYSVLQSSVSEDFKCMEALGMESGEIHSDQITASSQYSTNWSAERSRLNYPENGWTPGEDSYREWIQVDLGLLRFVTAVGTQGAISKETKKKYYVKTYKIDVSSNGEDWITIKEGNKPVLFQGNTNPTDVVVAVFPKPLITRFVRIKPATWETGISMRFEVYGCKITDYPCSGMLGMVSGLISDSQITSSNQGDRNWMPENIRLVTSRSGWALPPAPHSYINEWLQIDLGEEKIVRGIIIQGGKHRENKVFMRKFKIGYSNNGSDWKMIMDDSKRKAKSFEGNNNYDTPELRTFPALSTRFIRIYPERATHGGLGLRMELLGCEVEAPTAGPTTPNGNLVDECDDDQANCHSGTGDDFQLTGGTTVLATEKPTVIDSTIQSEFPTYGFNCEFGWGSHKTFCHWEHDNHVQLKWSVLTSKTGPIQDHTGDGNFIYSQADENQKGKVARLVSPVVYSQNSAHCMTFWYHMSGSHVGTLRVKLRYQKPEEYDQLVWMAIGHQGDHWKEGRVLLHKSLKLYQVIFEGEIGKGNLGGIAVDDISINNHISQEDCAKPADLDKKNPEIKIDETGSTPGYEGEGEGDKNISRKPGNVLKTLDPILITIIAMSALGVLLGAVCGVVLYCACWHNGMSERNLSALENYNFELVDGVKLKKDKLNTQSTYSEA

NRP1 = system: NRP1; parameters: method as in PMID 20151671; conditions: read-out: IC50, inhibition of bt-VEGF-A binding to NRP1; cited from earlier work
HUVEC cells [5] = system: HUVEC cells; parameters: method as in PMID 20151671; conditions: 100 μM in combination with VEGF-A; cited from earlier work
[6] = female, BABL/c (so in the source); BALB/c), mouse, plasma, IV bolus 2 mg/kg

## N=C(N)NCCC[C@H](NC(=O)c1sccc1NS(=O)(=O)c1cc(-c2cccc(CNCc3ncc[nH]3)c2)cc2c1OCC2)C(=O)O [10b, N2-(3-((5-(3-((((1H-Imidazol-2-yl)methyl)amino)methyl)phenyl)-2,3-dihydrobenzofuran)-7-sulfonamido)thiophene-2-carbonyl)-Nω-((2,2,4,6,7-pentamethyl-2,3-dihydrobenzofuran-5-yl)sulfonyl)-L-arginine]
NRP1-b1
  Kd: 840 ± 160 nM

## N=C(N)NCCC[C@H](NC(=O)c1sccc1NS(=O)(=O)c1cc(-c2ccc(CN)cc2)cc2c1OCC2)C(=O)O [compound 1, (3-((5-(4-(Aminomethyl)phenyl)-2,3-dihydrobenzofuran)-7-sulfonamido)thiophene-2-carbonyl)-L-arginine]
HUVEC cells [1]
  effect on VEGF-induced wound closure: can delay the VEGF-induced wound closure
Nrp1+ Tregs
  effect on GCM-induced production of TGFβ: inhibited the GCM-induced production of TGFβ
NRP2
  binding to NRP2 by SPR: no detectable NRP2 binding
[2]; female, BABL/c, mouse, plasma, IV
  half-life: 257 min
[2]; female, BABL/c, mouse, plasma, IV bolus 2 mg/kg
  clearance: 14 mL/min/kg
[3]; 30 μM + VEGF-A 25 ng/mL, 7 days
  effect on A375P spheroid invasion induced by VEGF-A: significantly inhibited invasion induced by VEGF-A
[3]; 30 μM, compared to DMSO control
  effect on A375P radial invasion, compound alone: no significant effect on radial invasion
HUVEC cells [4]
  effect on HUVEC migration, compound alone: did not influence the migratory ability of these cells
DU145/cells.Ad.NRP1
  DU145/cells.Ad.NRP1, (HS): 0.9

## CN(C)Cc1cccc(-c2cc3c(c(S(=O)(=O)Nc4ccsc4C(=O)N[C@@H](CCCNC(=N)N)C(=O)O)c2)OCC3)c1 [compound 13, (3-((5-(3-((Dimethylamino)methyl)phenyl)-2,3-dihydrobenzofuran)-7-sulfonamido)thiophene-2-carbonyl)-L-arginine]
[2]; IV, in words
  clearance and AUC compared with 1: notably higher clearance and lower AUC than 1

## N=C(N)NCCC[C@H](NC(=O)c1sccc1NS(=O)(=O)c1cc(-c2cccc(CNCc3cc[nH]n3)c2)cc2c1OCC2)C(=O)O [10c, N2-(3-((5-(3-((((1H-Pyrazol-3-yl)methyl)amino)methyl)phenyl)-2,3-dihydrobenzofuran)-7-sulfonamido)thiophene-2-carbonyl)-Nω-((2,2,4,6,7-pentamethyl-2,3-dihydrobenzofuran-5-yl)sulfonyl)-L-arginine]
NRP1-b1
  Kd: 1450 ± 70 nM

## N=C(N)NCCC[C@H](NC(=O)c1sccc1NS(=O)(=O)c1cc(-c2cccc(CNCc3ccccn3)c2)cc2c1OCC2)C(=O)O [10e, Nω-((2,2,4,6,7-Pentamethyl-2,3-dihydrobenzofuran-5-yl)sulfonyl)-N2-(3-((5-(3-(((pyridin-2-ylmethyl)amino)methyl)phenyl)-2,3-dihydrobenzofuran)-7-sulfonamido)thiophene-2-carbonyl)-L-arginine]
NRP1-b1
  Kd: 410 ± 90 nM

## N=C(N)NCCC[C@H](NC(=O)c1sccc1NS(=O)(=O)c1cc(-c2ccccc2CNCc2ncc[nH]2)cc2c1OCC2)C(=O)O [9b, N2-(3-((5-(2-((((1H-Imidazol-2-yl)methyl)amino)methyl)phenyl)-2,3-dihydrobenzofuran)-7-sulfonamido)thiophene-2-carbonyl)-Nω-((2,2,4,6,7-pentamethyl-2,3-dihydrobenzofuran-5-yl)sulfonyl)-L-arginine]
NRP1-b1
  Kd: 1770 ± 100 nM

## N=C(N)NCCC[C@H](NC(=O)c1sccc1NS(=O)(=O)c1cccc2nsnc12)C(=O)O [EG00229, (S)-2-(3-(benzo[c][1,2,5]thiadiazole-4-sulfonamido)thiophene-2-carboxamido)-5-((diaminomethylene)amino)pentanoic acid]
NRP1
  IC50: 8 µM
HUVEC cells [5]
  reduction of migration (previously reported): ≈ 34%

## N=C(N)NCCC[C@H](NC(=O)c1sccc1NS(=O)(=O)c1cc(-c2ccccc2CNCc2cc[nH]n2)cc2c1OCC2)C(=O)O [9c, N2-(3-((5-(2-((((1H-Pyrazol-3-yl)methyl)amino)methyl)phenyl)-2,3-dihydrobenzofuran)-7-sulfonamido)thiophene-2-carbonyl)-Nω-((2,2,4,6,7-pentamethyl-2,3-dihydrobenzofuran-5-yl)sulfonyl)-L-arginine]
NRP1-b1
  Kd: 2100 ± 40 nM

## N=C(N)NCCC[C@H](NC(=O)c1sccc1NS(=O)(=O)c1cc(-c2cccc(CNCc3cn[nH]c3)c2)cc2c1OCC2)C(=O)O [10d, N2-(3-((5-(3-((((1H-Pyrazol-4-yl)methyl)amino)methyl)phenyl)-2,3-dihydrobenzofuran)-7-sulfonamido)thiophene-2-carbonyl)-Nω-((2,2,4,6,7-pentamethyl-2,3-dihydrobenzofuran-5-yl)sulfonyl)-L-arginine]
NRP1-b1
  Kd: 1430 ± 110 nM
[2]; IV bolus 2 mg/kg
  t1/2: 1.20 h
[2]; female, BABL/c (so in the source); BALB/c), mouse, plasma, IV
  half-life: 72 min
[2]; [6]
  AUC(0-inf): 3140 ng·h/mL
  Cmax: 2620 ng/mL
  Tmax: 4.8 min
  Vd: 1.1 L/kg
  clearance: 18.4 mL/min/kg

## N=C(N)NCCC[C@H](NC(=O)c1sccc1NS(=O)(=O)c1cc(-c2ccccc2CNCc2ccccn2)cc2c1OCC2)C(=O)O [9e, Nω-((2,2,4,6,7-Pentamethyl-2,3-dihydrobenzofuran-5-yl)sulfonyl)-N2-(3-((5-(2-(((pyridin-2-ylmethyl)amino)methyl)phenyl)-2,3-dihydrobenzofuran)-7-sulfonamido)thiophene-2-carbonyl)-L-arginine]
NRP1-b1
  Kd: 680 ± 210 nM

## N=C(N)NCCC[C@H](NC(=O)c1sccc1NS(=O)(=O)c1cc(-c2ccccc2CNCc2cn[nH]c2)cc2c1OCC2)C(=O)O [9d, N2-(3-((5-(2-((((1H-Pyrazol-4-yl)methyl)amino)methyl)phenyl)-2,3-dihydrobenzofuran)-7-sulfonamido)thiophene-2-carbonyl)-Nω-((2,2,4,6,7-pentamethyl-2,3-dihydrobenzofuran-5-yl)sulfonyl)-L-arginine]
NRP1-b1
  Kd: 2140 ± 70 nM
